Literature values, collected in US8729108B2, “Waterborne topical compositions for the delivery of active ingredients such as azelaic acid” (priority 2008, dated 2014).

- solubility in cosmetic oils (cosmetic oils): little or no solubility
- maximum azelaic acid content of an aqueous solution (water): about 0.24 % by weight (w/w)
Compound: O=C(O)CCCCCCCC(=O)O [Azelaic acid, nonanedioic acid]
